Measured values: paper PMC11003488 (Journal of Enzyme Inhibition and Medicinal Chemistry, 2023)

Tests used:
[1] = tested on: HT29; assay: NCI-60 SRB growth inhibition, one-dose and five-dose; assay type: cell-based; conditions: Homo sapiens
[2] = tested on: MDA-MB-435; assay: as above; assay type: cell-based; conditions: Homo sapiens
[3] = tested on: NCI-H322M; assay: as above; assay type: cell-based; conditions: Homo sapiens
[4] = tested on: ACHN; assay: as above; assay type: cell-based; conditions: Homo sapiens
[5] = tested on: NCI-H460; assay: as above; assay type: cell-based; conditions: Homo sapiens
[6] = tested on: T-47D; assay: as above; assay type: cell-based; conditions: Homo sapiens, T47D
[7] = tested on: SK-MEL-5; assay: as above; assay type: cell-based; conditions: Homo sapiens
[8] = tested on: SNB-19; assay: as above; assay type: cell-based; conditions: Homo sapiens
[9] = tested on: NCI 60-cell line panel (full panel); assay: NCI-60 SRB growth inhibition, full panel mean / MG-MID; assay type: cell-based, human
[10] = tested on: SF-295; assay: NCI-60 SRB growth inhibition, one-dose and five-dose; assay type: cell-based; conditions: Homo sapiens
[11] = tested on: IGROV1; assay: as above; assay type: cell-based; conditions: Homo sapiens
[12] = tested on: K-562; assay: as above; assay type: cell-based; conditions: Homo sapiens
[13] = tested on: MCF7; assay: as above; assay type: cell-based; conditions: Homo sapiens
[14] = tested on: UACC-62; assay: as above; assay type: cell-based; conditions: Homo sapiens
[15] = tested on: HOP-92; assay: as above; assay type: cell-based; conditions: Homo sapiens
[16] = tested on: SF-268; assay: as above; assay type: cell-based; conditions: Homo sapiens
[17] = tested on: 786-0; assay: as above; assay type: cell-based; conditions: Homo sapiens
[18] = tested on: A549/ATCC; assay: as above; assay type: cell-based; conditions: Homo sapiens
[19] = tested on: HCT-116; assay: as above; assay type: cell-based; conditions: Homo sapiens
[20] = tested on: SR; assay: as above; assay type: cell-based; conditions: Homo sapiens
[21] = tested on: CCRF-CEM; assay: as above; assay type: cell-based; conditions: Homo sapiens
[22] = tested on: HS 578 T; assay: as above; assay type: cell-based; conditions: Homo sapiens
[23] = tested on: BT-549; assay: as above; assay type: cell-based; conditions: Homo sapiens
[24] = tested on: OVCAR-3; assay: as above; assay type: cell-based; conditions: Homo sapiens
[25] = tested on: RXF 393; assay: as above; assay type: cell-based; conditions: Homo sapiens
[26] = tested on: DU-145; assay: as above; assay type: cell-based; conditions: Homo sapiens
[27] = tested on: OVCAR-4; assay: as above; assay type: cell-based; conditions: Homo sapiens
[28] = tested on: COLO 205; assay: as above; assay type: cell-based; conditions: Homo sapiens
[29] = tested on: OVCAR-5; assay: as above; assay type: cell-based; conditions: Homo sapiens
[30] = tested on: HCC-2998; assay: as above; assay type: cell-based; conditions: Homo sapiens
[31] = tested on: CAKI-1; assay: as above; assay type: cell-based; conditions: Homo sapiens
[32] = tested on: NCI-H226; assay: as above; assay type: cell-based; conditions: Homo sapiens
[33] = tested on: LOX IMVI; assay: as above; assay type: cell-based; conditions: Homo sapiens
[34] = tested on: MALME-3M; assay: as above; assay type: cell-based; conditions: Homo sapiens
[35] = tested on: SF-539; assay: as above; assay type: cell-based; conditions: Homo sapiens
[36] = tested on: SNB-75; assay: as above; assay type: cell-based; conditions: Homo sapiens
[37] = tested on: HOP-62; assay: as above; assay type: cell-based; conditions: Homo sapiens
[38] = tested on: A498; assay: as above; assay type: cell-based; conditions: Homo sapiens
[39] = tested on: SK-MEL-2; assay: as above; assay type: cell-based; conditions: Homo sapiens
[40] = tested on: HCT-15; assay: as above; assay type: cell-based; conditions: Homo sapiens
[41] = tested on: NCI-H522; assay: as above; assay type: cell-based; conditions: Homo sapiens
[42] = tested on: NCI/ADR-RES; assay: as above; assay type: cell-based; conditions: Homo sapiens
[43] = read-out: percent growth inhibition

CC(=O)Nc1ccc(/C=C/C(=O)c2cccc(NCc3ccc(C)cc3)c2)cc1 [Compound 5f, (E)-N-(4–(3-(3-((4-methylbenzyl)amino)phenyl)-3-oxoprop-1-en-1-yl)phenyl)acetamide]
GI50 ([1]; HT-29): 10.7 µM | inhibition at 10 µM ([1]; HT-29, read-out: percent growth inhibition): 128% | GI50 ([2]; MDA-MB-435): 6.21 µM | inhibition at 10 µM ([2]; MDA-MB-435, read-out: percent growth inhibition): 35.7% | GI50 [3]: 15.1 µM | inhibition at 10 µM [3, 43]: 22.5% | GI50 [4]: 13.2 µM | inhibition at 10 µM [4, 43]: 65% | GI50 ([5]; NCI-H460): 4.18 µM | inhibition at 10 µM ([5]; NCI-H460, read-out: percent growth inhibition): 68% | GI50 [6]: 10.2 µM | inhibition at 10 µM [6, 43]: 86.5% | GI50 ([7]; SK-MEL-5): 7.24 µM | inhibition at 10 µM ([7]; SK-MEL-5, read-out: percent growth inhibition): 49.6% | GI50 ([8]; SNB-19): 12.4 µM | inhibition at 10 µM ([8]; SNB-19, read-out: percent growth inhibition): 31.4% | GI50 ([9]; Homo sapiens, 60 cell, read-out: Full panel GI50 mean): 9.25 µM | Full panel Mean GI % ([9]; mean over NCI-60 panel, single dose 10 µM): 61.75% | GI50 ([10]; SF-295): 15.7 µM | inhibition at 10 µM ([10]; SF-295, read-out: percent growth inhibition): 27.7% | GI50 ([11]; IGROV-1): 12.9 µM | inhibition at 10 µM ([11]; IGROV-1, read-out: percent growth inhibition): 39% | GI50 ([12]; K562): 3.04 µM | inhibition at 10 µM ([12]; K562, read-out: percent growth inhibition): 64.2% | GI50 ([13]; MCF7): 3.37 µM | inhibition at 10 µM ([13]; MCF7, read-out: percent growth inhibition): 90.5% | GI50 ([14]; UACC-62): 10.8 µM | inhibition at 10 µM ([14]; UACC-62, read-out: percent growth inhibition): 48.7% | GI50 ([15]; HOP-92): 15.5 µM | inhibition at 10 µM ([15]; HOP-92, read-out: percent growth inhibition): 8.52% | GI50 ([16]; SF-268): 4.58 µM | inhibition at 10 µM ([16]; SF-268, read-out: percent growth inhibition): 45.8% | GI50 ([17]; 786-0): 10.3 µM | inhibition at 10 µM ([17]; 786-0, read-out: percent growth inhibition): 60.4% | GI50 ([18]; A549): 24.6 µM | inhibition at 10 µM ([18]; A549, read-out: percent growth inhibition): 30.5% | GI50 ([19]; HCT-116, HCT-116, five-dose screening): 1.91 µM | inhibition at 10 µM ([19]; HCT-116, read-out: percent growth inhibition): 179% | GI50 [20]: 1.51 µM | inhibition at 10 µM [20, 43]: 96.5% | GI50 [21]: 2.84 µM | inhibition at 10 µM [21, 43]: 87.2% | GI50 [22]: 15.4 µM | inhibition at 10 µM [22, 43]: 47% | GI50 ([23]; BT-549): 5.26 µM | inhibition at 10 µM ([23]; BT-549, read-out: percent growth inhibition): 66% | GI50 ([24]; OVCAR-3): 3.19 µM | inhibition at 10 µM ([24]; OVCAR-3, read-out: percent growth inhibition): 78% | GI50 ([25]; RXF 393): 10.9 µM | inhibition at 10 µM ([25]; RXF 393, read-out: percent growth inhibition): 32.9% | GI50 ([26]; DU-145): 7.44 µM | inhibition at 10 µM ([26]; DU-145, read-out: percent growth inhibition): 62.1% | GI50 ([27]; OVCAR-4): 6.18 µM | inhibition at 10 µM ([27]; OVCAR-4, read-out: percent growth inhibition): 56.1% | GI50 ([28]; COLO 205): 16 µM | inhibition at 10 µM ([28]; COLO 205, read-out: percent growth inhibition): 53.7% | GI50 ([29]; OVCAR-5): 18.5 µM | inhibition at 10 µM ([29]; OVCAR-5, read-out: percent growth inhibition): 29.2% | GI50 ([30]; HCC 2998): 13.9 µM | inhibition at 10 µM ([30]; HCC 2998, read-out: percent growth inhibition): 15.2% | GI50 ([31]; CAKI-1): 10.8 µM | inhibition at 10 µM ([31]; CAKI-1, read-out: percent growth inhibition): 23.2% | GI50 ([32]; NCI-H226): 13.7 µM | inhibition at 10 µM ([32]; NCI-H226, read-out: percent growth inhibition): 21.8% | GI50 [33]: 2.97 µM | inhibition at 10 µM [33, 43]: 157% | GI50 [34]: 12.3 µM | inhibition at 10 µM [34, 43]: 31.1% | GI50 ([35]; SF-539): 9.33 µM | inhibition at 10 µM ([35]; SF-539, read-out: percent growth inhibition): 153% | GI50 ([36]; SNB-75): 12.5 µM | inhibition at 10 µM ([36]; SNB-75, read-out: percent growth inhibition): 32.3% | GI50 ([37]; HOP-62): 13.9 µM | inhibition at 10 µM ([37]; HOP-62, read-out: percent growth inhibition): 13.9% | GI50 ([38]; A498): 17.9 µM | inhibition at 10 µM ([38]; A498, read-out: percent growth inhibition): -0.63% | GI50 ([39]; SK-MEL-2): 11.5 µM | inhibition at 10 µM ([39]; SK-MEL-2, read-out: percent growth inhibition): 16.5% | GI50 ([40]; HCT-15): 3.31 µM | inhibition at 10 µM ([40]; HCT-15, read-out: percent growth inhibition): 113% | GI50 ([41]; NCI-H522): 11 µM | inhibition at 10 µM ([41]; NCI-H522, read-out: percent growth inhibition): 106% | GI50 [42]: 3.72 µM
